From ChEMBL document CHEMBL1817540, “Design and discovery of a selective small molecule κ opioid antagonist (2-methyl-N-((2'-(pyrrolidin-1-ylsulfonyl)biphenyl-4-yl)methyl)propan-1-amine, PF-4455242)” (J Med Chem, 2011) come the findings set out here.

Each structure is given as a SMILES string. In brackets after ≈: the same amount, converted by molar mass.

Data set [1] is described as follows: Solubility of compound at pH 5.5. Type of data set: physicochemical. The note with it: buffer.
Data set [2] is described as follows: Solubility of compound at pH 6.6. Type of data set: physicochemical. The note with it: buffer.
Data set [3] is described as follows: Permeability of the compound by PAMPA. Type of data set: ADME. To be noted: read-out: permeability. On the technique in general: PAMPA measures passive passage across an artificial lipid membrane.
The nature of data set [4]: Permeability across dog RRCK cells. Type of data set: ADME, cell-based, Canis lupus familiaris, MDCKII-LE. To be noted: MDCK, read-out: permeability.
A short description of data set [5]: Penetration ratio, ratio of fAUC (0 to 4 hrs) in Sprague-Dawley rat brain to fAUC (0 to 4 hrs) in Sprague-Dawley rat plasma at […], sc. Type of data set: ADME, organism-based. Set-up: dose 3.2 mg/kg, route subcutaneous.
A short description of data set [6]: Penetration ratio, ratio of AUC (0 to 4 hrs) in Sprague-Dawley rat CSF to AUC (0 to 4 hrs) in Sprague-Dawley rat unbound plasma at […], sc. Type of data set: ADME, organism-based. More on the design: dose 3.2 mg/kg, route subcutaneous. To be noted: read-out: Ratio AUC.

A word on the solubility: it is the concentration that dissolves in the medium under given conditions. A low value points to a poorly soluble substance. As to `CC(C)CNCc1ccc(-c2ccccc2S(=O)(=O)N2CCCC2)cc1` [PF-04455242], the values for the solubility in data set [1] and in data set [2] were over 8530 µg/mL and 110 µg/mL (≈ 295 µM), respectively. The Papp in data set [3] and in data set [4] was 19 ×10⁻⁶ cm/s in each case. The Kp uu in data set [5] worked out at 1; in data set [6] it was 1.2.
